Measurements taken from patent publication US20240336610A1, “3CL PROTEASE SMALL-MOLECULE INHIBITOR FOR TREATING OR PREVENTING CORONAVIRUS INFECTION, AND USE THEREOF” (THE GLOBAL HEALTH DRUG DISCOVERY INSTITUTE, priority 2021, published 2024).
Counter-ions that a name gives are not always drawn. Like-named read-outs stand apart in the source and are kept apart here.

Columns and labels:
[1] = target: SARS-CoV-2 main protease (3CLpro) (Severe acute respiratory syndrome coronavirus 2 (2019-nCoV) (SARS-CoV-2), UniProt P0DTD1); test: Enzyme activity test; format: biochemical; conditions: 200 nM recombinant SARS-CoV-2 main protease, 15 μM fluorescent substrate, pH 7.3
SARS-CoV-2 = test: SARS-CoV-2/Hela-ACE test; format: cell-based; conditions: read-out: SAR-CoV-2 EC50
[2] = Toxicity testing in uninfected cells; format: cell-based; conditions: human, uninfected Hela-ACE cells, Cell-Titer Glo
Protocol: (§1) Toxicity Testing in Uninfected Cells
(§2) The compound was transferred to a 1536-well plate (Corning No. 9006BC), and then Hela-ACE cells were added (cell density: 600 cells/5 microliter of medium MEM with 2% FBS). After the assay plate was incubated at 37° C. in 5% CO2 for 48 hours, cell viability was tested. 2 μL of 50% Cell-Titer Glo (Promega No G7573) was diluted in water and added to a cell assay plate, and then a value on En Vision Plate Reader (Perkin Elmer) was read.

[3] = Oral pharmacokinetics in rats; format: in vivo; conditions: rat, blood, male SD rats, 15 mg/kg
Protocol: Test Example 2: Measurement of Oral Pharmacokinetics in Rats
Male SD rats were orally administered with 15 mg/kg of the compound in the examples of the present disclosure, and blood samples were collected at 0.083, 0.25, 0.5, 1, 2, 4, and 8 hours respectively. After the samples were treated with anticoagulant EDTA-K2 and acetonitrile and centrifuged, a drug concentration analysis was conducted using LC/MS/MS.

Hela-ACE cells = test: Toxicity testing in uninfected cells; format: cell-based; conditions: 48 hours, Cell-Titer Glo
Protocol: as §1, §2

[4] = Severe acute respiratory syndrome coronavirus 2, Hela-ACE cells infected with SARS-CoV-2 (USA-WA1/2020), 48 hours
[5] = Severe acute respiratory syndrome coronavirus 2, 48 h

## Cc1ccc(S(=O)(=O)N[C@H](C(=O)N2C[C@H]3[C@@H]([C@H]2C(=O)NC(C#N)c2cncc(C(F)(F)F)c2)C3(C)C)C(C)(C)C)cc1 (stereo partly drawn) [GDI-016, (1R,2S,5S)-N-(cyano(5-(trifluoromethyl)pyridin-3-yl)methyl)-3-((S)-3,3-dimethyl-2-((4-methylphenyl)sulfonamido)butanoyl)-6,6-dimet hyl-3-azabicyclo[3.1.0]hexane-2-carboxamide]
[1]
  IC50: 31 nM
SARS-CoV-2; [4]
  EC50: 32 nM
[2]
  CC50 at 48 h: > 39200 nM

## CC(=O)N[C@H](C(=O)N1C[C@H]2[C@@H]([C@H]1C(=O)NC(C#N)c1cncc(C#N)c1)C2(C)C)C(C)(C)C (stereo partly drawn) [GDI-010, (1R,2S,5S)-3-((S)-2-acetamido-3,3-dimethylbutyryl)-N-(cyano(5-cyanopyridin-3-yl)methyl)-6,6-dimethyl-3-azabicyclo[3.1.0]hexane-2-carboxamide]
[1]
  IC50: 330 nM
SARS-CoV-2; [4]
  EC50: 5720 nM
[2]
  CC50 at 48 h: > 39800 nM

## CC(=O)N[C@H](C(=O)N1C[C@H]2[C@@H]([C@H]1C(=O)N[C@@H](C#N)c1cncc3ccccc13)C2(C)C)C(C)(C)C [GDI-037]
[1]
  IC50: 40 nM
SARS-CoV-2; [4]
  EC50: 30 nM
[2]
  CC50 at 48 h: > 39800 nM

## CC(C)(C)[C@H](N)C(=O)N1C[C@H]2[C@@H]([C@H]1C(=O)NC(C#N)c1cncc(Br)c1)C2(C)C (stereo partly drawn) [GDI-002, (1R,2S,5S)-3-((S)-2-amino-3,3-dimethylbutyryl)-N-((5-bromopyridin-3-yl)(cyano)methyl)-6,6-dimethyl-3-azabicyclo[3.1.0]he xane-2-carboxamide formate]
[1]
  IC50: 320 nM
SARS-CoV-2; [5]
  EC50: 7860 nM
[2]
  CC50 at 48 h: > 39800 nM

## CC(=O)N[C@H](C(=O)N1C[C@H]2[C@@H]([C@H]1C(=O)NC(C#N)c1cncc(C(F)(F)F)c1)C2(C)C)C(C)(C)C (stereo partly drawn) [GDI-007, (1R,2S,5S)-3-((S)-2-acetamido-3,3-dimethylbutanol)-N-(cyano(5-(trifluoromethyl)pyridin-3-yl)methyl)-6,6-dimethyl-3-azabicyclo [3.1.0]hexane-2-carboxamide]
[1]
  IC50: 170 nM
SARS-CoV-2; [4]
  EC50: 512 nM
[2]
  CC50 at 48 h: > 39800 nM

## CC(C)(C)OC(=O)NC(C(=O)N1C[C@H]2[C@@H]([C@H]1C(=O)NC(C#N)c1cncc(Br)c1)C2(C)C)C(C)(C)C (stereo partly drawn) [GDI-001]
[1]
  IC50: 80 nM
SARS-CoV-2; [4]
  EC50: 462 nM
[3]
  AUC(0-inf): 1830 ng·h/mL
  AUC(0-t): 1810 ng·h/mL
  Cmax: 630 ng/mL
  half-life: 2.34 h
[2]
  CC50 at 48 h: > 39800 nM

## CC(=O)N[C@H](C(=O)N1C[C@H]2[C@@H]([C@H]1C(=O)NC(C#N)c1cncc(Br)c1)C2(C)C)C(C)(C)C (stereo partly drawn) [GDI-003, (1R,2S,5S)-3-((S)-2-acetamido-3,3-dimethylbutyryl)-N-((5-bromopyridin-3-yl)(cyano)methyl)-6,6-dimethyl-3-azabicyclo[3.1.0]he xane-2-carboxamide]
[1]
  IC50: 50 nM
SARS-CoV-2; [4]
  EC50: 1250 nM
[2]
  CC50 at 48 h: > 39800 nM

## CC(=O)N[C@H](C(=O)N1C[C@H]2[C@@H]([C@H]1C(=O)NC(C#N)c1cncc(C)c1)C2(C)C)C(C)(C)C (stereo partly drawn) [GDI-005, (1R,2S,5S)-3-((S)-2-acetamido-3,3-dimethylbutyryl)-N-(cyano(5-methylpyridin-3-yl)methyl)-6,6-dimethyl-3-azabicyclo[3.1.0]hex ane-2-carboxamide]
[1]
  IC50: 80 nM
SARS-CoV-2; [4]
  EC50: 117 nM
[2]
  CC50 at 48 h: > 39800 nM

## COc1cncc(C(C#N)NC(=O)[C@@H]2[C@@H]3[C@H](CN2C(=O)[C@@H](NC(C)=O)C(C)(C)C)C3(C)C)c1 (stereo partly drawn) [GDI-008, (1R,2S,5S)-3-((S)-2-acetamido-3,3-dimethylbutyryl)-N-(cyano(5-methoxypyridin-3-yl)methyl)-6,6-dimethyl-3-azabicyclo[3.1.0]he xane-2-carboxamide]
[1]
  IC50: 37 nM
SARS-CoV-2; [4]
  EC50: 417 nM
[2]
  CC50 at 48 h: > 39800 nM

## (1R,2S,5S)-N-(cyano(5-(3-methyl-1,2,4-oxadiazol-5-yl)pyridin-3-yl)methyl)-3-(S)-3,3-dimethyl-2-(2,2,2-trifluoroacetylamino) butyryl)- 6,6-dimethyl-3-azabicyclo[3.1.0]hexane-2-carboxamide [GDI-017]
[1]
  IC50: 46 nM
SARS-CoV-2; Hela-ACE cells infected with SARS-CoV-2 (USA-WA1/2020), 48 hours
  EC50: 660 nM
Hela-ACE cells
  CC50: > 39800 nM

## CC(C)(C)[C@H](NC(=O)C(F)(F)F)C(=O)N1C[C@H]2[C@@H]([C@H]1C(=O)NC(C#N)c1cncc(Br)c1)C2(C)C (stereo partly drawn) [GDI-011, (1R,2S,5S)-N-((5-bromopyridin-3-yl) (cyano)methyl)-3-((S)-3,3-dimethyl-2-(2,2,2-trifluoroacetylamino)butyryl)-6,6-dimethyl-3-aza bicyclo[3.1.0]hexane-2-carboxamide]
[1]
  IC50: 78 nM
SARS-CoV-2; [5]
  EC50: 613 nM
[3]
  AUC(0-inf): 3470 ng·h/mL
  AUC(0-t): 3450 ng·h/mL
  Cmax: 1870 ng/mL
  half-life: 1.05 h
[2]
  CC50 at 48 h: > 39800 nM

## CC(=O)N[C@H](C(=O)N1C[C@H]2[C@@H]([C@H]1C(=O)NC(C#N)c1cncc3ccccc13)C2(C)C)C(C)(C)C (stereo partly drawn) [GDI-006, (1R,2S,5S)-3-((S)-2-acetamido-3,3-dimethylbutyryl)-N-(cyano(isoquinolin-4-yl)methyl)-6,6-dimethyl-3-azabicyclo[3.1.0]hexane-2-carboxamide]
[1]
  IC50: 28 nM
SARS-CoV-2; [4]
  EC50: 28 nM
[3]
  AUC(0-inf): 1700 ng·h/mL
  AUC(0-t): 1690 ng·h/mL
  Cmax: 2170 ng/mL
  half-life: 0.875 h
[2]
  CC50 at 48 h: > 39800 nM

## CC(=O)N[C@H](C(=O)N1C[C@H]2[C@@H]([C@H]1C(=O)N[C@H](C#N)c1cncc3ccccc13)C2(C)C)C(C)(C)C [GDI-036]
[1]
  IC50: 20 nM
SARS-CoV-2; [4]
  EC50: 20 nM
[2]
  CC50 at 48 h: > 39800 nM
